Among the data in patent US20150018305A1, “SIRTUIN INDUCER, TISSUE REPAIRING AGENT, HEPATOCYTE GROWTH FACTOR INDUCER, TISSUE HOMEOSTASIS MAINTENANCE AGENT, AND TLR4 AGONIST, HAVING HYALURONIC ACID FRAGMENT AS ACTIVE INGREDIENT” (HYALURONAN RESEARCH INSTITUTE, INC., priority 2012, published 2015) are Average staining intensity values, retold here.

The subject of this assay is human sirtuin proteins (SIRT1). Put plainly: Sirtuin induction in human epidermal keratinocytes, anti human SIRT1 antibody staining (Test Example 1). Format: cell-based. As to conditions: 24 hours. How it is done: Human epidermal keratinocytes (normal human keratinocytes from a person) were cultured and prepared. Following culture of the human keratinocytes in a prolonged culture growth medium (EpiLife-KG2) at 37° C. under 5% CO2, the cells were recovered by trypsin treatment. The cells were then inoculated into a 96-well plate (100 μL per well) and cultured overnight. Following completion of culture, the culture broth from each well was transferred to a culture medium (keratinocyte SFM made by Gibco) to which no hyaluronic acid fragments were added, or to the same culture medium to which a hyaluronic acid fragment (4mer) was added to a final concentration of 0.01 ng/ml, 0.1 ng/ml, 1.0 ng/ml, or 10 ng/ml, and cultured for 24 hours.
After 24 hours had passed, the cells in each well were stained with the anti human SIRT1 antibody. The anti human SIRT1 antibody is an antibody that recognizes and stains human sirtuin proteins. The stained cells were observed under a microscope (made by Nikon), taking photographs of cell morphology and stained images of cells.

Molecules are shown by their SMILES.

Take `CC(=O)N[C@H]1[C@H](O[C@H]2[C@H](O)[C@@H](O)[C@H](O[C@H]3[C@H](O)[C@@H](CO)OC(O)[C@@H]3NC(C)=O)O[C@@H]2C(=O)O)O[C@H](CO)[C@@H](O)[C@@H]1O[C@@H]1O[C@H](C(=O)O)[C@@H](O)[C@H](O)[C@H]1O` (stereo partly shown) [4mer, GlcA(-GlcNAc-GlcA)1-GlcNAc]: the Average staining intensity by setting is: (0.01 ng/ml) 6.33; (0.1 ng/ml) 6.35; (1.0 ng/ml) 6.52; (10 ng/ml) 6.54.
